Each molecule was assayed against T1, SMYD2 (Homo sapiens, UniProt Q9NRG4) (assay: SMYD2 Biochemical Assay (3H-SAM, biotinylated peptide substrate, Flashplate)). Details: IC50 values are an average of n = 1 to n = 50; read-out: SMYD2 Biochem IC50 (μM)*.
T1 construct: Full length SMYD2 (NP 064582.2) was cloned; His6 (N, cleaved yes); FLAG (N); made in house; host or cells: Sf9 insect cells
Summary of the method: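 Full-length His/FLAG-tagged SMYD2 expressed in Sf9 cells with tag cleaved, 1.5 nM, pre-incubated 30 min at room temperature with compound, then 10 nM 3H-SAM and 60 nM biotinylated peptide added. Buffer 20 mM Bicine pH 7.6, 1 mM TCEP, 0.005% BSG, 0.002% Tween20, 2% DMSO. Stopped with 600 uM cold SAM; 3H-peptide captured on streptavidin Flashplate; IC50 by curve fit.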

T1 sequence (Q9NRG4 whole entry): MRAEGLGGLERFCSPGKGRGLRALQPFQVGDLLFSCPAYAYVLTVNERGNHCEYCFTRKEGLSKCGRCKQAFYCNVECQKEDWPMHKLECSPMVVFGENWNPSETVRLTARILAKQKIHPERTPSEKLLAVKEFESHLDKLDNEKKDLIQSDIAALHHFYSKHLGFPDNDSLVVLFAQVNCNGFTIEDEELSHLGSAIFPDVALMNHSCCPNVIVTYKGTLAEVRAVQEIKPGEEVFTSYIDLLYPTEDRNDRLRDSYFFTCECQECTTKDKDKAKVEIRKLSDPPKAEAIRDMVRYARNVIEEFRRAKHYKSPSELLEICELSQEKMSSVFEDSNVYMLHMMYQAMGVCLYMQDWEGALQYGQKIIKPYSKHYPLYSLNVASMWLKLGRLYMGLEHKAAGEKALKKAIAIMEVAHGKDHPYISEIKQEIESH

Question: With `C[C@H]1CN(c2ccccn2)C[C@H]1NC(=O)c1cc(C2CC2)on1` (racemic) [compound 318, (±)-cis-5-cyclopropyl-N-[4-methyl-1-(pyridin-2-yl)pyrrolidin-3-yl]-1,2-oxazole-3-carboxamide] as the molecule, how does the IC50 read?
Answer: > 50 µM

Question: How did the IC50 turn out when `C[C@H]1CN(c2ccncc2)C[C@H]1NC(=O)c1cc(C2CC2)on1` (racemic) [compound 319, (±)-cis-5-cyclopropyl-N-[4-methyl-1-(pyridin-4-yl)pyrrolidin-3-yl]-1,2-oxazole-3-carboxamide] was run?
Answer: > 50 µM

Question: `Cc1nc[nH]c1CN1C[C@H](C)[C@H](NC(=O)c2cc(C3CC3)on2)C1` (racemic) [compound 320, (±)-cis-5-cyclopropyl-N-{4-methyl-1-[(4-methyl-1H-imidazol-5-yl)methyl]pyrrolidin-3-yl}-1,2-oxazole-3-carboxamide] was tested. Which IC50 did it give?
Answer: 11.6 µM

Question: With `C[C@H]1CN(Cc2ccc(Cl)cc2Cl)C[C@H]1NC(=O)c1cc(C2CC2)on1` (racemic) [compound 321, (±)-cis-5-cyclopropyl-N-{1-[(2,4-dichloro-phenyl)methyl]-4-methylpyrrolidin-3-yl}-1,2-oxazole-3-carboxamide] as the molecule, how does the IC50 read?
Answer: 4.64 µM

Question: `C[C@H]1CN(Cc2c(Cl)cccc2Cl)C[C@H]1NC(=O)c1cc(C2CC2)on1` (racemic) [compound 322, (±)-cis-5-cyclopropyl-N-{1-[(2,6-dichloro-phenyl)methyl]-4-methylpyrrolidin-3-yl}-1,2-oxazole-3-carboxamide] was tested. Which IC50 did it give?
Answer: > 50 µM

Question: How did the IC50 turn out when `C[C@H]1CN(Cc2c[nH]c3cc(Cl)ccc23)C[C@H]1NC(=O)c1cc(C2CC2)on1` (racemic) [compound 324, (±)-cis-N-{1-[(6-chloro-1H-indol-3-yl)methyl]-4-methylpyrrolidin-3-yl}-5-cyclopropyl-1,2-oxazole-3-carboxamide] was run?
Answer: 9.34 µM

Question: How did the IC50 turn out when `CC(=O)Nc1cccc(N2C[C@H](C)[C@H](NC(=O)c3cc(C4CC4)on3)C2)c1` (racemic) [compound 325, (±)-cis-5-cyclopropyl-N-[1-(3-acetamidophenyl)-4-methylpyrrolidin-3-yl]-1,2-oxazole-3-carboxamide] was run?
Answer: > 50 µM

Question: Which IC50 does the source give for `Cc1nn(C)cc1CN1C[C@H](C)[C@H](NC(=O)c2cc(C3CC3)on2)C1` (racemic) [compound 326, (±)-cis-5-cyclopropyl-N-{1-[(1,3-dimethyl-1H-pyrazol-4-yl)methyl]-4-methylpyrrolidin-3-yl}-1,2-oxazole-3-carboxamide] here?
Answer: 1.67 µM

Question: `C[C@H]1CN(Cc2ncc[nH]2)C[C@H]1NC(=O)c1cc(C2CC2)on1` (racemic) [compound 327, (±)-cis-5-cyclopropyl-N-[1-(1H-imidazol-2-ylmethyl)-4-methyl-pyrrolidin-3-yl]-1,2-oxazole-3-carboxamide] was tested. Which IC50 did it give?
Answer: 49.7 µM

Question: How did the IC50 turn out when `C[C@H]1CN(Cc2c[nH]cn2)C[C@H]1NC(=O)c1cc(C2CC2)on1` (racemic) [compound 328, (±)-cis-5-cyclopropyl-N-[1-(1H-imidazol-4-ylmethyl)-4-methyl-pyrrolidin-3-yl]-1,2-oxazole-3-carboxamide] was run?
Answer: 2.65 µM

Question: Which IC50 does the source give for `C[C@H]1CN(Cc2cccc3c2OCO3)C[C@H]1NC(=O)c1cc(C2CC2)on1` (racemic) [compound 331, (±)-cis-N-[1-(2H-1,3-benzodioxol-4-ylmethyl)-4-methyl-pyrrolidin-3-yl]-5-cyclopropyl-1,2-oxazole-3-carboxamide] here?
Answer: 3.57 µM

Question: How did the IC50 turn out when `C[C@H]1CN(Cc2ccc3ncccc3c2)C[C@H]1NC(=O)c1cc(C2CC2)on1` (racemic) [compound 332, (±)-cis-5-cyclopropyl-N-[4-methyl-1-(quinolin-6-ylmethyl)pyrrolidin-3-yl]-1,2-oxazole-3-carboxamide] was run?
Answer: 24.2 µM

Question: `COc1cc(CN2C[C@H](C)[C@H](NC(=O)c3cc(C4CC4)on3)C2)cc(OC)c1` (racemic) [compound 333, (±)-cis-5-cyclopropyl-N-{1-[(3,5-dimethoxy-phenyl)methyl]-4-methylpyrrolidin-3-yl}-1,2-oxazole-3-carboxamide] was tested. Which IC50 did it give?
Answer: > 50 µM

Question: Which IC50 does the source give for `C[C@H]1CN(c2ccnc(N)n2)C[C@H]1NC(=O)c1cc(C2CC2)on1` (racemic) [compound 334, (±)-cis-N-[1-(2-amino-pyrimidin-4-yl)-4-methylpyrrolidin-3-yl]-5-cyclopropyl-1,2-oxazole-3-carboxamide] here?
Answer: > 50 µM

Question: `CC(=O)Nc1ccccc1N1C[C@H](C)[C@H](NC(=O)c2cc(C3CC3)on2)C1` (racemic) [compound 335, (±)-cis-5-cyclopropyl-N-[1-(2-acetamido-phenyl)-4-methylpyrrolidin-3-yl]-1,2-oxazole-3-carboxamide] was tested. Which IC50 did it give?
Answer: > 50 µM

Question: How did the IC50 turn out when `C[C@H]1CN(c2cccnc2)C[C@H]1NC(=O)c1cc(C2CC2)on1` (racemic) [compound 336, (±)-cis-5-cyclopropyl-N-[4-methyl-1-(pyridin-3-yl)pyrrolidin-3-yl]-1,2-oxazole-3-carboxamide] was run?
Answer: > 50 µM

Question: With `C[C@H]1CN(CCC2CCNCC2)C[C@H]1NC(=O)c1cc(C2CC2)on1` (racemic) [compound 337, (±)-cis-5-cyclopropyl-N-{4-methyl-1-[2-(piperidin-4-yl)ethyl]pyrrolidin-3-yl}-1,2-oxazole-3-carboxamide] as the molecule, how does the IC50 read?
Answer: 10.6 µM

Question: For `C[C@H]1CN(CC2CCN(C)CC2)C[C@H]1NC(=O)c1cc(C2CC2)on1` (racemic) [compound 338, (±)-cis-5-cyclopropyl-N-{4-methyl-1-[(1-methylpiperidin-4-yl)methyl]pyrrolidin-3-yl}-1,2-oxazole-3-carboxamide], which IC50 is on record?
Answer: > 50 µM

Question: How did the IC50 turn out when `C[C@H]1CN(c2ncccn2)C[C@H]1NC(=O)c1cc(C2CC2)on1` (racemic) [compound 339, (±)-cis-5-cyclopropyl-N-[4-methyl-1-(pyrimidin-2-yl)pyrrolidin-3-yl]-1,2-oxazole-3-carboxamide] was run?
Answer: > 50 µM

Question: `C[C@H]1CN(c2ccncn2)C[C@H]1NC(=O)c1cc(C2CC2)on1` (racemic) [compound 340, (±)-cis-5-cyclopropyl-N-[4-methyl-1-(pyrimidin-4-yl)pyrrolidin-3-yl]-1,2-oxazole-3-carboxamide] was tested. Which IC50 did it give?
Answer: > 50 µM

Question: How did the IC50 turn out when `CC(C)N1C[C@H](C)[C@H](NC(=O)c2cc(C#N)on2)C1` (racemic) [compound 341, (±)-cis-5-cyano-N-[4-methyl-1-(propan-2-yl)pyrrolidin-3-yl]-1,2-oxazole-3-carboxamide] was run?
Answer: 22.8 µM

Question: With `CC(C)N1C[C@H](C)[C@H](NC(=O)c2cc(C3CNC3)on2)C1` (racemic) [compound 342, (±)-cis-5-(azetidin-3-yl)-N-[4-methyl-1-(propan-2-yl)pyrrolidin-3-yl]-1,2-oxazole-3-carboxamide] as the molecule, how does the IC50 read?
Answer: > 50 µM

Question: For `CC(C)N1C[C@H](C)[C@H](NC(=O)c2cc(C3CN(C)C3)on2)C1` (racemic) [compound 343, (±)-cis-N-[4-methyl-1-(propan-2-yl)pyrrolidin-3-yl]-5-(1-methylazetidin-3-yl)-1,2-oxazole-3-carboxamide], which IC50 is on record?
Answer: > 50 µM

Question: Which IC50 does the source give for `CC(C)N1C[C@H](C)[C@H](NC(=O)c2cc(CC(F)F)on2)C1` (racemic) [compound 345, (±)-cis-5-(2,2-difluoro-ethyl)-N-[4-methyl-1-(propan-2-yl)pyrrolidin-3-yl]-1,2-oxazole-3-carboxamide] here?
Answer: 5.84 µM

Question: Which IC50 does the source give for `CC(C)N1C[C@H](C)[C@H](NC(=O)c2cc(C3(O)COC3)on2)C1` (racemic) [compound 346, (±)-cis-5-(3-hydroxyoxetan-3-yl)-N-[4-methyl-1-(propan-2-yl)pyrrolidin-3-yl]-1,2-oxazole-3-carboxamide] here?
Answer: > 50 µM

Question: With `CC(C)N1C[C@H](C)[C@H](NC(=O)c2cc(C(F)(F)F)on2)C1` (racemic) [compound 348, (±)-cis-N-[4-methyl-1-(propan-2-yl)pyrrolidin-3-yl]-5-(trifluoromethyl)-1,2-oxazole-3-carboxamide] as the molecule, how does the IC50 read?
Answer: 6.68 µM

Question: For `CCOC(=O)C(C)CN1C[C@@H](C)[C@H](NC(=O)c2cc(C3CC3)on2)C1` (relative stereo) [compound 128, trans-ethyl 3-[3-(5-cyclopropyl-1,2-oxazole-3-amido)-4-methylpyrrolidin-1-yl]-2-methylpropanoate], which IC50 is on record?
Answer: > 50 µM

Question: How did the IC50 turn out when `CCOC(=O)C(C)CN1C[C@H](C)[C@H](NC(=O)c2cc(C3CC3)on2)C1` (relative stereo) [compound 186, cis-ethyl 3-[3-(5-cyclopropyl-1,2-oxazole-3-amido)-4-methylpyrrolidin-1-yl]-2-methylpropanoate] was run?
Answer: 20.8 µM

Question: With `CC(Cc1ccc2c(c1)OCO2)CN1C[C@H](C)[C@H](NC(=O)c2cc(C3CC3)on2)C1` (relative stereo) [compound 323, cis-N-{1-[2-(2H-1,3-benzodioxol-5-ylmethyl)propyl]-4-methylpyrrolidin-3-yl}-5-cyclopropyl-1,2-oxazole-3-carboxamide] as the molecule, how does the IC50 read?
Answer: 9.31 µM

Question: `CCC(c1ccccc1)N1C[C@H](C)[C@H](NC(=O)c2cc(C3CC3)on2)C1` (relative stereo) [compound 329, cis-5-cyclopropyl-N-[4-methyl-1-(1-phenyl-propyl)pyrrolidin-3-yl]-1,2-oxazole-3-carboxamide] was tested. Which IC50 did it give?
Answer: 1.15 µM

Question: For `C[C@H]1CN(C(CO)c2ccccc2)C[C@H]1NC(=O)c1cc(C2CC2)on1` (relative stereo) [compound 330, cis-5-cyclopropyl-N-[1-(2-hydroxy-1-phenylethyl)-4-methyl-pyrrolidin-3-yl]-1,2-oxazole-3-carboxamide], which IC50 is on record?
Answer: 9.44 µM

Question: `CC(c1cc(C(=O)N[C@@H]2CN(C(C)C)C[C@@H]2C)no1)C(F)F` (relative stereo) [compound 344, cis-5-(1,1-difluoropropan-2-yl)-N-[4-methyl-1-(propan-2-yl)pyrrolidin-3-yl]-1,2-oxazole-3-carboxamide] was tested. Which IC50 did it give?
Answer: 10.2 µM

Question: With `CCOC(=O)C1CC1CN1C[C@H](C)[C@H](NC(=O)c2cc(C3CC3)on2)C1` (stereo in doubt) [compound 176, cis-ethyl 2-{[3-(5-cyclopropyl-1,2-oxazole-3-amido)-4-methylpyrrolidin-1-yl]methyl}cyclopropane-1-carboxylate] as the molecule, how does the IC50 read?
Answer: 5.28 µM

Source: US20170253601A1, “Substituted Pyrrolidine Compounds” (EPIZYME, INC., priority 2014, published 2017)
